Our source for the GI50 and TGI values is PubChem BioAssay (NCI).

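Exposure lasted 48 hours, with cells grown in 96-well plates and compounds tested at five concentrations. GI50 = concentration required for 50% inhibition of growth. TGI is the concentration that stops growth completely.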

Common to all, as to assay: NCI anticancer screen, dose series, 48 h
The subject of assay [1] is UACC-62 melanoma.
Assay [2] has as its system OVCAR-8 ovarian.
In assay [3] the test system is SF-295 CNS.
In assay [4] the test system is HL-60(TB) leukemia.
The test system of assay [5] is SF-268 CNS.
Assay [6] has as its system SR leukemia.
In assay [7] the test system is OVCAR-5 ovarian.
Assay [8] deals with SW-620 colon.
Assay [9] has as its system LOX IMVI melanoma.
The test system of assay [10] is MOLT-4 leukemia.

Take `O=C1CSC(c2ccc(-c3nc4ccccc4[nH]3)cc2)=N1`: the GI50 is 12.5 µM in assay [1]; 23 µM in [2]; 29.5 µM in [3]; > 50 µM in assay [4]; 22.4 µM in assay [5]; 5.7 µM in assay [6]. Further, the figures for the GI50 in [7], in [8] and in assay [9] were > 50 µM, > 50 µM and 15.7 µM, respectively. The TGI in [1], in assay [2], in assay [3], in assay [4], in assay [5] and in [6] was > 50 µM each time. In addition, the TGI in [7], in assay [8] and in [9] was > 50 µM each time.

Consider `O=C(O)C(Br)C(Br)C(=O)O` (stereo not drawn), for which the TGI in [1], in assay [2], in [3], in assay [4], in assay [5] and in assay [6] was > 100 µM each time. For the same compound, the TGI in assay [7], in assay [8] and in assay [9] was > 100 µM throughout.

As to `CCCCCCCCCCCC[N+](C)(C)Cc1ccccc1`, the GI50 in [10] is 2.18 µM; in assay [2] it was 2.16 µM; in assay [3] it was 2.82 µM; in assay [4], 1.02 µM; in assay [5], 2.02 µM; in assay [6] it was 1.83 µM. Further, the GI50 in assay [7] was 2.86 µM; in assay [8], 2.69 µM. The TGI in assay [10] came out at 5.4 µM; in assay [2] it was 6.75 µM; in assay [3], 12.2 µM; in [4], 2.85 µM; in assay [5] it was 4.45 µM; in assay [6], 5.16 µM. Also, the TGI came out at 13.5 µM in assay [7] and 12.1 µM in assay [8].

Consider `CC(C)=O.O=C([O-])C(F)(F)F.O=C([O-])C(F)(F)F.O=C([O-])C(F)(F)F.O=C([O-])C(F)(F)F.[Rh+2].[Rh+2]`, for which the GI50 in [10] was 15.4 µM; in assay [1], > 100 µM; in [2], 56.1 µM; in assay [3], > 100 µM; in [5], > 100 µM; in assay [6] it was 22.2 µM. Also, the figures for the GI50 in assay [7], in assay [8] and in assay [9] were > 100 µM, 65.2 µM and 53.3 µM, respectively. Also, the TGI in assay [10], in [1], in assay [2], in [3], in assay [5] and in assay [6] was > 100 µM throughout. In addition, the TGI in assay [7], in [8] and in assay [9] was > 100 µM throughout.

Consider `COc1cc(OC)cc(-c2nc3sccn3c2/C=N/N=C(N)N)c1`, for which the GI50 in assay [10] is 10.9 µM; in assay [1], 8.03 µM; in [2], 9.85 µM; in assay [3], 8.94 µM; in assay [5], 10.2 µM; in assay [6] it was 8.64 µM. In addition, the GI50 in assay [7] is 7.25 µM; in assay [8] it was 10 µM; in assay [9], 6.49 µM. In addition, the TGI in [10] is 18.6 µM; in assay [1], 14.8 µM; in assay [2], 20.8 µM; in assay [3], 17.7 µM; in assay [5], 27.2 µM; in assay [6], 16.1 µM. In addition, the results for the TGI in assay [7], in assay [8] and in assay [9] were 13.8 µM, 19.1 µM and 12.8 µM, respectively.

On to `COC12C=C/C(=C(/C(=O)OCCSc3ccnn3C)C(=O)CCCCCCCCC3(OC)C=C/C(=C(/C(=O)OCCSc4ccnn4C)C(=O)CCCCCCCC1)O3)O2`, for which the GI50 in [1] was 0.716 µM; in [2], 1 µM; in [3], 0.948 µM; in assay [4], 0.929 µM; in assay [5], 1.15 µM; in [6] it was 0.886 µM. The GI50 in assay [7] is 1.73 µM; in [8], 1.07 µM; in [9], 0.573 µM. Also, the TGI in assay [1] is 1.85 µM; in [2] it was 6.79 µM; in assay [3] it was 2.93 µM; in assay [4] it was 2.63 µM; in [5] it was > 32.5 µM; in [6], > 32.5 µM. Also, the values for the TGI in [7], in [8] and in assay [9] were > 32.5 µM, 5.38 µM and 1.18 µM, respectively.

`Cn1cnc([N+](=O)[O-])c1Sc1nnnn1C`: the TGI is 33.7 µM in assay [10]; 32 µM in [1]; 33.2 µM in [2]; > 100 µM in assay [3]; 50.2 µM in [5]; 28.2 µM in assay [6]. For the same compound, the TGI in [7] is 45.2 µM; in assay [8] it was 26 µM; in [9], 26.6 µM.

For `O=c1nc(NC(c2ccccc2)(c2ccccc2)c2ccccc2)ccn1CCCl`, the TGI in assay [10] stood at 42.3 µM; in [2] it was 29.7 µM; in assay [3] it was 42.9 µM; in assay [4], 54.9 µM; in assay [5], 34.1 µM; in [6], 49.5 µM. Also, the TGI came to 82.4 µM in assay [7], 48.6 µM in assay [8] and 31.8 µM in assay [9].

Take `O=C1OCC(c2ccc(O)cc2)=C1c1cc(O)c(O)c(O)c1`: the GI50 in assay [10] is > 100 µM; in assay [1] it was > 100 µM; in assay [2], > 100 µM; in assay [3], 26.4 µM; in assay [5], > 100 µM; in assay [6], 20.7 µM. For the same compound, the GI50 is 55.6 µM in assay [7], 68 µM in assay [8] and 32.6 µM in assay [9]. For the same compound, the TGI in [10] is > 100 µM; in assay [1], > 100 µM; in assay [2] it was > 100 µM; in assay [3], 50.4 µM; in assay [5], > 100 µM; in [6], > 100 µM. For the same compound, the TGI in assay [7], in assay [8] and in [9] was > 100 µM each time.
